IC50 data for 34 compounds are collected here from patent publication US11001561B2, “Pyrimidinone derivatives as SHP2 antagonists” (MERCK PATENT GMBH, priority 2019, dated 2021).

Structures can show the parent of a compound that is named as a salt.

The target in the first assay is Full length SHP2 protein (Recombinant Human SHP-2) (Homo sapiens (Human), UniProt Q06124). The assay can be described thus: SHP2 biochemical assay (DiFMUP substrate, activating peptide IRSI_2pY). Particulars: SHP-2 biochemical assay IC50 (μM), activating peptide IRSI_2pY 140 nM, DiFMUP, 60 min.
Chain of Full length SHP2 protein (Recombinant Human SHP-2) (Q06124 2-593): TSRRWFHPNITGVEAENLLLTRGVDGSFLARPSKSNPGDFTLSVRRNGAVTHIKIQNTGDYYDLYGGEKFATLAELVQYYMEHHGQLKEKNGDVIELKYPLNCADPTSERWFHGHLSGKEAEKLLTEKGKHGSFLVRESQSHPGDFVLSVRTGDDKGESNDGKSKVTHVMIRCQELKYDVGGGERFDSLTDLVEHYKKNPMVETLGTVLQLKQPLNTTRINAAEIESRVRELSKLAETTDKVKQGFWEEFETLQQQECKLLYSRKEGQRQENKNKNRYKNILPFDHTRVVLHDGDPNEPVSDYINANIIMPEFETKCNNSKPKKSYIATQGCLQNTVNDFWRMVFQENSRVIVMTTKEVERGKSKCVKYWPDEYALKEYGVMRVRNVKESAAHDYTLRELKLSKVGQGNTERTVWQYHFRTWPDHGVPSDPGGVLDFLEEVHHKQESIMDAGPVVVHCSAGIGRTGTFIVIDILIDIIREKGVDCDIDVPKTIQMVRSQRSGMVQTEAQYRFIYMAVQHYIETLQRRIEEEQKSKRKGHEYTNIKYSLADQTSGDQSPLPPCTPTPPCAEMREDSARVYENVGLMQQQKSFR
Protocol: The inhibition of SHP2 by compounds of the invention was monitored using the surrogate substrate DiFMUP after protein activation by a peptide bearing two appropriately spaced phosphotyrosine. […] The generation of the DiFMU product by activated SHP2 was monitored through Fluorescence measurement with a PerkinElmer Envision reader. The inhibitor dose response curves were analyzed with Genedata Screener.
Usually IC50 stands for the point on the concentration scale where inhibition reaches its midpoint. As to `Cc1nc(N2CC[C@@H](N)[C@@H](O)C2)cc(=O)n1-c1cccc(Cl)c1Cl` (racemic) [Compound 30, (+/−)-6-[(3S,4R)-4-amino-3-hydroxypiperidin-1-yl]-3-(2,3-dichlorophenyl)-2-methyl-3,4-dihydropyrimidin-4-one], the IC50 amounted to 13 µM.
As to `Cc1nc(N2CCC(C)(N3CC[C@H](O)C3)CC2)cc(=O)n1-c1cccc(Cl)c1Cl` (single isomer, unassigned) [Compound 72a], the IC50 was above 10 µM.
`Cc1nc(N2CCC[C@](N)(CC(F)F)CC2)cc(=O)n1-c1cccc(Cl)c1Cl` (racemic) [Compound 58a, (+/−)-(3M)-6-4-[(1R)-4-amino-4-(2,2-difluoroethyl)-azepan-1-yl]-3-(2,3-dichlorophenyl)-2-methyl-3,4-dihydropyrimidin-4-one]: the IC50 is above 10 µM.
In the case of `Cc1nc(C2=CC[C@@](C)(N)CC2)cc(=O)n1-c1cccc(Cl)c1Cl` (racemic) [Compound 6a, (+/−)-(3M)-6-[(4S)-4-amino-4-methylcyclohex-1-en-1-yl]-3-(2,3-dichlorophenyl)-2-methyl-3,4-dihydropyrimidin-4-one], the IC50 turned out to be 19 µM.
The same measure, in the same setting: the value for `Cc1c(N2C[C@H]3COC[C@@]3(CN)C2)nc(C)n(-c2cccc(Cl)c2Cl)c1=O` (racemic) [Compound 34, (+/−)-6-[(3aS,6aS)-3a-(aminomethyl)-hexahydro-1H-furo[3,4-c]pyrrol-5-yl]-3-(2,3-dichlorophenyl)-2,5-dimethyl-3,4-dihydropyrimidin-4-one] was 1.7 µM; that for `[2H]C([2H])([2H])c1c(N2CCC(C)(N)CC2)nc(C)n(-c2cccc(Cl)c2Cl)c1=O` [Compound 94, 6-(4-amino-4-methylpiperidin-1-yl)-3-(2,3-dichlorophenyl)-5-(D3)methyl-2-methyl-3,4-dihydropyrimidin-4-one] was 1.4 µM.

The same assay, now with this note: activating peptide IRSI_2pY 140 nM, DiFMUP, 60 min; read-out: SHP-2 biochemical assay IC50.
Turning to `Cc1c(N2CCC(CN)(CO)CC2)nc(C)n(-c2cccc(Cl)c2Cl)c1=O` [Compound 88, 6-[4-(aminomethyl)-4-(hydroxymethyl)piperidin-1-yl]-3-(2,3-dichlorophenyl)-2,5-dimethyl-3,4-dihydropyrimidin-4-one], the concentration for half-maximal inhibition (IC50) turned out to be 0.59 µM.
Still for that read-out and setting: the value for `Cc1nc(N2C[C@H]3CC(O)C[C@@]3(CN)C2)cc(=O)n1-c1cccc(Cl)c1Cl` (stereo partly drawn) [Compound 59, 6-[(3aR,6aS)-3a-(aminomethyl)-5-hydroxy-octahydrocyclopenta[c]pyrrol-2-yl]-3-(2,3-dichlorophenyl)-2-methyl-3,4-dihydropyrimidin-4-one] was 2.6 µM; that for `Cc1nc(N2CCC3(CC2)CO[C@@H](C)[C@H]3N)c(CCO)c(=O)n1-c1cccc(Cl)c1Cl` [Compound 76, 6-[(3S,4S)-4-amino-3-methyl-2-oxa-8-azaspiro[4.5]decan-8-yl]-3-(2,3-dichlorophenyl)-5-(2-hydroxyethyl)-2-methyl-3,4-dihydropyrimidin-4-one Hydrochloride] was 7 µM.
Turning to `Cc1c(N2CC(CN)C(C)(C)C2)nc(C)n(-c2cccc(Cl)c2Cl)c1=O` (stereo not shown) [Compound 87, 6-[4-(aminomethyl)-3,3-dimethylpyrrolidin-1-yl]-3-(2,3-dichlorophenyl)-2,5-dimeihyl-3,4-dihydropyrimidin-4-one], the IC50 is 7.9 µM.
For `Cc1c(N2CCCC(C)(CN)CC2)nc(C)n(-c2cccc(Cl)c2Cl)c1=O` (stereo not shown) [Compound 107, (3M)-6-[4-(aminomethyl)-4-methylazepan-1-yl]-3-(2,3-dichlorophenyl)-2,5-dimethyl-3,4-dihydropyrimidin-4-one], the IC50 stood at 1.2 µM.
On to `Cc1c(N2CCCC(N)(CC(C)O)CC2)nc(C)n(-c2cccc(Cl)c2Cl)c1=O` (stereo not shown) [Compound 115, (3M)-6-[4-amino-4-(2-hydroxypropyl)azepan-1-yl]-3-(2,3-dichlorophenyl)-2,5-dimethyl-3,4-dihydropyrimidin-4-one], for which the IC50 came to 3.8 µM.
Same read-out and setting: as for `COc1c(N2CCC3(CC2)CO[C@@H](C)[C@H]3N)nc(C)n(-c2cccc(Cl)c2Cl)c1=O` (single isomer, unassigned) [Compound 73a], the figure is above 10 µM; as for `Nc1nc(N2CCC3(CC2)CC(F)(F)C[C@H]3N)cc(=O)n1-c1cccc(Cl)c1Cl` [Compound 8, 2-amino-6-[(1R)-1-amino-3,3-difluoro-8-azaspiro[4.5]decan-8-yl]-3-(2,3-dichlorophenyl)-3,4-dihydropyrimidin-4-one], 1.1 µM.
The same measure, in the same setting: the value for `Cc1c(N2CCC3(CC2)CO[C@@H](C)[C@H]3N)nc(C)n(-c2ccc3ccccc3c2Cl)c1=O` [Compound 52, 6-((3S,4S)-4-Amino-3-methyl-2-oxa-8-aza-spiro[4.5]dec-8-yl)-3-(1-chloro-naphthalen-2-yl)-2,5-dimethyl-3H-pyrimidin-4-one] was 0.59 µM; that for `Cc1c(N2CCC3(CC2)CO[C@@H](C)[C@H]3N)nc(C)n(-c2cccc(Cl)c2Cl)c1=O` (single isomer, unassigned) [Compound 23a] was 3.4 µM.
Still for that read-out and setting: as for `Cc1nc(N2CCC(C)(CN)CC2)cc(=O)n1-c1c(F)ccc(Cl)c1Cl` (single isomer, unassigned) [Compound 33a, (3P)-6-[4-(aminomethyl)-4-methylpiperidin-1-yl]-3-(2,3-dichloro-6-fluorophenyl)-2-methyl-3,4-dihydropyrimidin-4-one], the figure is above 10 µM; as for `Cc1nc(N2CCC(C)(N)CC2)c(C2CC2)c(=O)n1-c1cccc(Cl)c1Cl` [Compound 93, 6-(4-Amino-4-methyl-piperidin-1-yl)-5-cyclopropyl-3-(2,3-dichloro-phenyl)-2-methyl-3H-pyrimidin-4-one], 12 µM.
`Cc1nc(N2CCC(NC[C@H](O)CO)CC2)cc(=O)n1-c1cccc(Cl)c1Cl` [Compound 42, 3-(2,3-dichlorophenyl)-6-(4-{[(2S)-2,3-dihydroxypropyl]amino}-piperidin-1-yl)-2-methyl-3,4-dihydropyrimidin-4-one]: the IC50 stood at 4.3 µM.
`Cc1c(N2CCC(C)(N)CC2)ncn(-c2cccc(Cl)c2Cl)c1=O` [Compound 70, 6-(4-Amino-4-methyl-piperidin-1-yl)-3-(2,3-dichloro-phenyl)-5-methyl-3H-pyrimidin-4-one]: the concentration for half-maximal inhibition (IC50) is above 10 µM.
Still for that read-out and setting: as for `Cc1c(N2CCC(C)(N)CC2)nc(C)n(-c2cccc(Cl)c2Cl)c1=O` [Compound 12, 6-(4-amino-4-methylpiperidin-1-yl)-3-(2,3-dichlorophenyl)-2,5-dimethyl-3,4-dihydropyrimidin-4-one], the figure is 1 µM.
For the compound `Cc1nc(N2CCC(C)(N)CC2)c(Cl)c(=O)n1-c1cccc(Cl)c1Cl` [Compound 10, 6-(4-amino-4-methylpiperidin-1-yl)-5-chloro-3-(2,3-dichlorophenyl)-2-methyl-3,4-dihydropyrimidin-4-one], the IC50 worked out at 1.1 µM.
As to `Cc1c(N2CCc3cc(N)ccc3C2)nc(C)n(-c2cccc(Cl)c2Cl)c1=O` [Compound 83, 6-(6-amino-1,2,3,4-tetrahydroisoquinolin-2-yl)-3-(2,3-dichlorophenyl)-2,5-dimethyl-3,4-dihydropyrimidin-4-one], the IC50 is above 10 µM.
For `COCC(O)CNC1CCN(c2cc(=O)n(-c3cccc(Cl)c3Cl)c(C)n2)CC1` (stereo not shown) [Compound 46, 3-(2,3-dichlorophenyl)-6-{4-[(2-hydroxy-3-methoxypropyl)-amino]piperidin-1-yl}-2-methyl-3,4-dihydropyrimidin-4-one], the IC50 was above 10 µM.
With `Cc1c(N2CCC3(CC2)Oc2cnccc2C3N)nc(C)n(-c2cccc(Cl)c2Cl)c1=O` (single isomer, unassigned) [Compound 80c], the IC50 came to 0.005 µM.
The same measure, in the same setting: as for `Cc1c(N2CCC(C)(N)CC2)nc(C)n(-c2cccc3ncsc23)c1=O` [Compound 43, 6-(4-Amino-4-methyl-piperidin-1-yl)-3-benzothiazol-7-yl-2,5-dimethyl-3H-pyrimidin-4-one], the figure is above 10 µM.
`Cc1nc(N2CCC(C)(CN)CC2)cc(=O)n1-c1cccc(Cl)c1Cl` [Compound 4, 6-[4-(aminomethyl)-4-methylpiperidin-1-yl]-3-(2,3-dichlorophenyl)-2-methyl-3,4-dihydropyrimidin-4-one]: the IC50 worked out at 0.26 µM.
Consider `Cc1c(N2CCC(C)(CN)CC2)nc(C)n(-c2ccc3nccnc3c2)c1=O` [Compound 55, 6-(4-Aminomethyl-4-methyl-piperidin-1-yl)-2,5-dimethyl-3-quinoxalin-6-yl-3H-pyrimidin-4-one], for which the IC50 was above 10 µM.
The same measure, in the same setting: the value for `Cc1nc(N2CCC(N)(C(N)=O)CC2)cc(=O)n1-c1cccc(Cl)c1Cl` [Compound 22, 4-amino-1-[1-(2,3-dichlorophenyl)-2-methyl-6-oxo-1,6-dihydropyrimidin-4-yl]piperidine-4-carboxamide] was 2.1 µM; that for `Cc1nc(N2CCC(NC[C@@H](O)CO)CC2)cc(=O)n1-c1cccc(Cl)c1Cl` [Compound 41, 3-(2,3-dichlorophenyl)-6-(4-{[(2R)-2,3-dihydroxypropyl]-amino}piperidin-1-yl)-2-methyl-3,4-dihydropyrimidin-4-one] was 2.5 µM.
Consider `Cc1nc(N2CCC(C)(CN)CC2)cc(=O)n1-c1c(F)ccc(Cl)c1Cl` (single isomer, unassigned) [Compound 33b, (3M)-6-[4-(aminomethyl)-4-methylpiperidin-1-yl]-3-(2,3-dichloro-6-fluorophenyl)-2-methyl-3,4-dihydropyrimidin-4-one], for which the IC50 amounted to 5.7 µM.
With `Cc1nc(N2CCN3C(=O)C(N)CC3C2)cc(=O)n1-c1cccc(Cl)c1Cl` (stereo not shown) [Compound 61, 6-7-amino-6-oxo-octahydropyrrolo[1,2-a]pyrazin-2-yl-3-(2,3-dichlorophenyl)-2-methyl-3,4-dihydropyrimidin-4-one], the IC50 is above 10 µM.
Turning to `Cc1nc(N2CCC3(CCC[C@H]3N)CC2)cc(=O)n1-c1cccc(Cl)c1Cl` (single isomer, unassigned) [Compound 62a], the IC50 is above 10 µM.
On to `Cc1nc(N2CCC(C)(NCC3CCC(O)CC3)CC2)cc(=O)n1-c1cccc(Cl)c1Cl` (stereo not shown) [Compound 50, 3-(2,3-dichlorophenyl)-6-(4-{[(4-hydroxycyclohexyl)methyl]amino}-4-methylpiperidin-1-yl)-2-methyl-3,4-dihydropyrimidin-4-one], for which the concentration for half-maximal inhibition (IC50) worked out at 0.56 µM.
